Measurements reported in patent publication US20100324285A1, “ANTIINFLAMMATORY AGENT COMPRISING 2-AMINOPHENOL OR DERIVATIVE THEREOF AS ACTIVE INGREDIENT” (priority 2006, published 2010).

Tests used:
iNOS = experiment: Amount of iNOS in cell extracts, western blotting; assay type: cell-based, mouse; conditions: RAW264.7 cell extracts of Experiment 2, anti-iNOS antibody
Method: In addition, the amount of iNOS in the cell extracts of this experiment was measured by western blotting analysis using an anti-iNOS antibody.

COX-2 = biological target: T1, COX-2 (Homo sapiens, UniProt P35354); experiment: COX Inhibitor Screening Assay Kit, COX-2; assay type: biochemical
T1 sequence (P35354 18-604): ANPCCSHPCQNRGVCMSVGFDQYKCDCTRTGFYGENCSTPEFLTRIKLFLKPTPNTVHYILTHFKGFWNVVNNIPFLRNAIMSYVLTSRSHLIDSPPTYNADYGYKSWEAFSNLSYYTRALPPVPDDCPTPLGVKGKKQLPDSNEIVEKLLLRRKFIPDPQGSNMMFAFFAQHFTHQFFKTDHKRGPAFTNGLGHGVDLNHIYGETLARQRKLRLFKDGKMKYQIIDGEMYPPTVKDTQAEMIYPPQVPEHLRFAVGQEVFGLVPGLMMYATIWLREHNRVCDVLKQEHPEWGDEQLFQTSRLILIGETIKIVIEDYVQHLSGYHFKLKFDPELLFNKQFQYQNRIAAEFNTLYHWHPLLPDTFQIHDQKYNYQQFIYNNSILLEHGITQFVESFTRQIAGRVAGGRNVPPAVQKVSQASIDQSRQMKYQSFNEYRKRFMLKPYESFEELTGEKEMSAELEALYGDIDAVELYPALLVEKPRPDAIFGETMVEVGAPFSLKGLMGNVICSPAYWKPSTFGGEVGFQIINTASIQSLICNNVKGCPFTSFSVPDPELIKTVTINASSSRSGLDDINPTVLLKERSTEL
Source text: Fifty percent inhibitory concentration (IC50) means the concentration of test sample necessary for inhibiting PGE2 synthesis by 50% compared to non-inhibitory control sample. It can be also determined by measuring the amount of PGE2 produced by adding test samples to cells having cyclooxygenase activity. COX-1/COX-2 ratio means the ratio of […], and the higher the ratio is, the more specific to COX-2 the agent is.
To verify the results of Experiment 2, it was investigated that whether the activity of COXs, essential enzymes for PGE2 synthesis system, can be inhibited. […] An experimental system without the test samples was set as control. The residual activity of COX-1 or COX-2 was determined as relative activity versus control.

[1] = test system: Mouse melanoma cell line B16; experiment: Living cell rate of B16 cells; conditions: 5 days, versus control
Method: As control, a system with no test sample was provided. […] The amount of protein was measured by conventional Bradfordmethod and the amount of melanin per 1 mg of protein was calculated. The amount of melanin (%) was calculated according to Formula 4, and the living cell rate (%) was calculated according to Formula 5.

[2] = test system: NHDF, normal fibroblast from human fetus; experiment: Cytopathic test, alamar Blue; assay type: cell-based; conditions: 6 days; for Cell survival rate (%), AA-2G free: no AA-2G; for Cell survival rate (%), AA-2G addition: with AA-2G
Method: Cells were cultured with test samples and D-MEM medium supplemented with 10 (v/v) % FCS with or without AA-2G for 6 days by the same method as above, and the supernatant was removed, washed with phosphate buffered saline (PBS(−)), and admixed with alamar Blue (commercialized by TREK Diagnostic Systems, Inc.), which had been diluted by 10-fold with D-MEM medium in a volume of 200 μl per well. After culturing at 37° C. for 90 minutes, the fluorescence intensity (exciting light: 544 nm, fluorescence: 590 nm) was measured. The cell survival rate (%) was calculated by dividing the fluorescence intensity of a well with a test sample by the fluorescence intensity of a well with a control sample, and multiplying by 100.

[3] = read-out: residual activity of COX-2

For `Nc1cc2nc3ccccc3oc-2cc1=O` [2-Aminophenoxazine-3-one, 2-aminophenoxazine-3-one], the “amount of iNOS” value (iNOS) was “decreased depending on the 2-aminophenoxazine-3-one concentration”, the IC50 (COX-2; PGE2 from arachidonic acid, read-out: IC50 COX-2) was 4.83 µM and the COX-1/COX-2 ratio (COX-2; ratio of IC50 values of Table 2) was “about 1.3”. The remaining activity at 1.9 µM (COX-2; [3]) was 95%, the remaining activity at 3.8 µM (COX-2; [3]) was 37% and the remaining activity at 7.6 µM (COX-2; [3]) was 29%. For the same compound, the “Living cell rate (%)” value ([1]; 0.5 μM) was 107%, the “Living cell rate (%)” value ([1]; 1 μM) was 95% and the “Living cell rate (%)” value ([1]; 2 μM) was 77%. For the same compound, the “Cell survival rate (%), AA-2G free” value ([2]; QA 0.125 μM) was 101%, the “Cell survival rate (%), AA-2G addition” value ([2]; QA 0.125 μM) was 100% and the “Cell survival rate (%), AA-2G free” value ([2]; QA 0.25 μM) was 103%. The “Cell survival rate (%), AA-2G addition” value ([2]; QA 0.25 μM) was 100%, the “Cell survival rate (%), AA-2G free” value ([2]; QA 0.5 μM) was 99% and the “Cell survival rate (%), AA-2G addition” value ([2]; QA 0.5 μM) was 92%. The “Cell survival rate (%), AA-2G free” value ([2]; QA 1.0 μM) was 92%, the “Cell survival rate (%), AA-2G addition” value ([2]; QA 1.0 μM) was 79% and the “Cell survival rate (%), AA-2G free” value ([2]; QA 2.0 μM) was 88%. The “Cell survival rate (%), AA-2G addition” value ([2]; QA 2.0 μM) was 73%.
